Reference: ChEMBL document CHEMBL5131517 (ACS Med Chem Lett, 2022)

Experiments:
[1] = target: 5-hydroxytryptamine receptor 1E (Homo sapiens, UniProt P28566); assay: Binding affinity to 5HT1E receptor (unknown origin) assessed as inhibition constant
[2] = target: T1, Alpha-1A adrenergic receptor (Homo sapiens) (UniProt P35348); assay: Inhibition of alpha1A receptor (unknown origin); details: concentration not given here
T1 sequence (whole entry): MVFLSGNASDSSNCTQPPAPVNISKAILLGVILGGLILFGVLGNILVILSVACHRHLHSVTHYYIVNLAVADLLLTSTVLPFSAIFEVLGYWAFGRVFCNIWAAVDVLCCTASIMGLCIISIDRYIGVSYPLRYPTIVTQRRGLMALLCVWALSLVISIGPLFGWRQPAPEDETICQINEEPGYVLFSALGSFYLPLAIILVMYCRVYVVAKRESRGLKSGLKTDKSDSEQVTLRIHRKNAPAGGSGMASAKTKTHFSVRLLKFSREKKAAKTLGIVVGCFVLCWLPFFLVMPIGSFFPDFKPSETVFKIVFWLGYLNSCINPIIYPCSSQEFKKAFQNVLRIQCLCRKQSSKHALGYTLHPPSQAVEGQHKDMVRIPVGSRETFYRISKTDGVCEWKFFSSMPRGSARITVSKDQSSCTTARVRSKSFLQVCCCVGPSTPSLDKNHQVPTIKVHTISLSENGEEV

[3] = target: T2, 5-hydroxytryptamine receptor 2B (Homo sapiens, UniProt P41595); assay: Agonist activity at human 5HT2B receptor stably expressed in Flp-In-T-REx-293 cells assessed as maximal Gq-mediated calcium flux by Fluo-4 direct dye based FLIPR Tetra assay relative to control; assay type: functional, cell-based; details: filed as agonist
T2 sequence (P41595 whole entry): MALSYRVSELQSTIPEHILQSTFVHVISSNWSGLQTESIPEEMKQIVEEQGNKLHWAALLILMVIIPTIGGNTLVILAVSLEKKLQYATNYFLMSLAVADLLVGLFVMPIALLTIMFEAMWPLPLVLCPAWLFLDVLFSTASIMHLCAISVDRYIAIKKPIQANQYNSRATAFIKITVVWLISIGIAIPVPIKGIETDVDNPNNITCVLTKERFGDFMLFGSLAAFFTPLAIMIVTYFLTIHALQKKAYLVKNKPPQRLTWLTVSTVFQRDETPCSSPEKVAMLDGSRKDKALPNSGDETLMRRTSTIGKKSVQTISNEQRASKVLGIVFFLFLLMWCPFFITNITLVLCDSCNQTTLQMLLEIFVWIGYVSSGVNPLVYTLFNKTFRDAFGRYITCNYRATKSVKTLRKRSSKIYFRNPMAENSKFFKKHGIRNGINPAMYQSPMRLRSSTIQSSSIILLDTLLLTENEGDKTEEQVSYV

[4] = target: T3, Alpha-2B adrenergic receptor (Homo sapiens) (UniProt P18089); assay: Inhibition of alpha2B receptor (unknown origin); details: concentration not given here
T3 sequence (whole entry): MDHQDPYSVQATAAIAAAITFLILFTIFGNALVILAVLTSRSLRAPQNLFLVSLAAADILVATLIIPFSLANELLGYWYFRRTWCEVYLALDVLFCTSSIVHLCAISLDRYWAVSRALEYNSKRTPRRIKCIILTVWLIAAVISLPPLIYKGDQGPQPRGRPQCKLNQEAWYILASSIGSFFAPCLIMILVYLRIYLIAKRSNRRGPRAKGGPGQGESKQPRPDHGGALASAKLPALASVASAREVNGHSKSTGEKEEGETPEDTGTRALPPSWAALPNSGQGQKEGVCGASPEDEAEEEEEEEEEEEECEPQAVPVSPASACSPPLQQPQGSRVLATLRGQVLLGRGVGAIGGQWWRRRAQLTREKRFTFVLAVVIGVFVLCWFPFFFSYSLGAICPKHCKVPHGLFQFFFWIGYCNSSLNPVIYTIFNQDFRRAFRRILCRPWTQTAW

[5] = target: D(2) dopamine receptor (Homo sapiens) (UniProt P14416); assay: Inhibition of D2 receptor (unknown origin); details: concentration not given here
Chain of D(2) dopamine receptor (Homo sapiens) (P14416 whole entry): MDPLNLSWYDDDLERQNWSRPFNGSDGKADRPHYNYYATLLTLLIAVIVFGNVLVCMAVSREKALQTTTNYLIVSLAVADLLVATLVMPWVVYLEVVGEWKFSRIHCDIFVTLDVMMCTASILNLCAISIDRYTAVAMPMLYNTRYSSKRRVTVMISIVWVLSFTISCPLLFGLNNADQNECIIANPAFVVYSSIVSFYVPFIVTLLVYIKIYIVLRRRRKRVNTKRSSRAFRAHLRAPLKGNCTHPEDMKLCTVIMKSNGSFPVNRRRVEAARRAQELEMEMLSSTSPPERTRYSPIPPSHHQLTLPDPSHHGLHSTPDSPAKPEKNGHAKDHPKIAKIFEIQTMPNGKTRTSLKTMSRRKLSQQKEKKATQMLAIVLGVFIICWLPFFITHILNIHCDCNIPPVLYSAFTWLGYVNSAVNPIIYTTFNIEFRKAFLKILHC

[6] = target: T4, Muscarinic acetylcholine receptor M5 (Homo sapiens) (UniProt P08912); assay: Inhibition of M5 receptor (unknown origin); details: concentration not given here
T4 sequence (whole entry): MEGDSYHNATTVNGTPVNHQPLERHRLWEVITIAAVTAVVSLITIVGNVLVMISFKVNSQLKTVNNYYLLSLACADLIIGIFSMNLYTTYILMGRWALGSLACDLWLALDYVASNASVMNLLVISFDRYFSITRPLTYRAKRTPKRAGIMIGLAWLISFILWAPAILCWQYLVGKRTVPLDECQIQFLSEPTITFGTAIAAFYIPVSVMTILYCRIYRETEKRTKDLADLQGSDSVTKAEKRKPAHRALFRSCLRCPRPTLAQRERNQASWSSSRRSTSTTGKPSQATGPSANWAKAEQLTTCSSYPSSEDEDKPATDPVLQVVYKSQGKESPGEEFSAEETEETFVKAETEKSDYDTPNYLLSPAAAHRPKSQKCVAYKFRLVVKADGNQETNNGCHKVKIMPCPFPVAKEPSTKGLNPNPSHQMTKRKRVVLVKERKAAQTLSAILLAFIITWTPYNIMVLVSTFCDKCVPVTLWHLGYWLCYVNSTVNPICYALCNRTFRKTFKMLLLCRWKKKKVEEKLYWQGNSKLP

[7] = target: T2, 5-hydroxytryptamine receptor 2B; assay: Agonist activity at human 5HT2B receptor stably expressed in Flp-In-T-REx-293 cells assessed as increase in Gq-mediated calcium flux by Fluo-4 direct dye based FLIPR Tetra assay; assay type: functional, cell-based
[8] = target: 5-hydroxytryptamine receptor 7 (Homo sapiens, UniProt P34969); assay: Binding affinity to 5HT7 receptor (unknown origin) assessed as inhibition constant
Chain of 5-hydroxytryptamine receptor 7 (P34969 whole entry): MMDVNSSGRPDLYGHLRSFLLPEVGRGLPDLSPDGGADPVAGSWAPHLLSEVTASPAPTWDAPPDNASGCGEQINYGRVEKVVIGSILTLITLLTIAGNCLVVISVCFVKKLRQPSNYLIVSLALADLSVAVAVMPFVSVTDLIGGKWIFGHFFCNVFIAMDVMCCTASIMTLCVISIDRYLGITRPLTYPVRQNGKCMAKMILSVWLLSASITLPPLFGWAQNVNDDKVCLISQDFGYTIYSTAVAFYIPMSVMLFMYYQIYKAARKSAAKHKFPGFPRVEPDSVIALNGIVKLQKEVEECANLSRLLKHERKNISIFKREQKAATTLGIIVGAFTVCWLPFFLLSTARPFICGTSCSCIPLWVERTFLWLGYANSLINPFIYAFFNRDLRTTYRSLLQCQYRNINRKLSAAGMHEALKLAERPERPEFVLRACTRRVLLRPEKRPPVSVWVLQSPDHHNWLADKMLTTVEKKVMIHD

[9] = target: D(1B) dopamine receptor (Homo sapiens) (UniProt P21918); assay: Inhibition of D5 receptor (unknown origin); details: concentration not given here
Chain of D(1B) dopamine receptor (Homo sapiens) (P21918 whole entry): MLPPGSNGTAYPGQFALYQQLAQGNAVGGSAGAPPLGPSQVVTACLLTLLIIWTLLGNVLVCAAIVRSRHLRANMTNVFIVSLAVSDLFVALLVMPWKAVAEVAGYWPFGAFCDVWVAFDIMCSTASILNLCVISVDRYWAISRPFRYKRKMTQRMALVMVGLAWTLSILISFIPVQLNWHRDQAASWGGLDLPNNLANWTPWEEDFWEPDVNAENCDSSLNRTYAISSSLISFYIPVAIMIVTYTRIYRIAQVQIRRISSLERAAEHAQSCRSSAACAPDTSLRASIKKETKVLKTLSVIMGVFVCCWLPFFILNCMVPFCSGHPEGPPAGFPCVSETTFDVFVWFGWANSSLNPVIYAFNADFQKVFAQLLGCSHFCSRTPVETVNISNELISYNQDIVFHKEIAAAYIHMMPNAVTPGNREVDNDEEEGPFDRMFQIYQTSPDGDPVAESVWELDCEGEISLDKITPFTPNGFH

[10] = target: T5, Alpha-1D adrenergic receptor (Homo sapiens) (UniProt P25100); assay: Inhibition of alpha1D receptor (unknown origin); details: concentration not given here
T5 sequence (whole entry): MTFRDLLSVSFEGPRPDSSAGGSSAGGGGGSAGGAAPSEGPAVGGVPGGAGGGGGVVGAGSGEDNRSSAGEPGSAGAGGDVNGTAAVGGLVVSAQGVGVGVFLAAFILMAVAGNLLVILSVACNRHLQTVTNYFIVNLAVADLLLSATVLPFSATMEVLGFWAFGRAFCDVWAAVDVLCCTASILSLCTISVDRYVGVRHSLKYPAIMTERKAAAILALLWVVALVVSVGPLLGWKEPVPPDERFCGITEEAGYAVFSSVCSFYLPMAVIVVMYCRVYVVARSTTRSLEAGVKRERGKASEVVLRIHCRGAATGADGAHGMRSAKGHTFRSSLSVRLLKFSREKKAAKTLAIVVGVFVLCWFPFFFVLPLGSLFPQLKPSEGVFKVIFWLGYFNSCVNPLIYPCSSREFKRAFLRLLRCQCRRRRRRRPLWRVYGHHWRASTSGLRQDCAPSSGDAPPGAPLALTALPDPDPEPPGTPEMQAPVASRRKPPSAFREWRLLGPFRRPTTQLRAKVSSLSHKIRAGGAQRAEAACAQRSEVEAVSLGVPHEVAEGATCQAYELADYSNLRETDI

Homo sapiens = species on record: Homo sapiens; assay: Inhibition of BZP receptor (unknown origin); details: concentration not given here
[11] = target: D(1A) dopamine receptor (Homo sapiens) (UniProt P21728); assay: Inhibition of D1 receptor (unknown origin); details: concentration not given here
Chain of D(1A) dopamine receptor (Homo sapiens) (P21728 whole entry): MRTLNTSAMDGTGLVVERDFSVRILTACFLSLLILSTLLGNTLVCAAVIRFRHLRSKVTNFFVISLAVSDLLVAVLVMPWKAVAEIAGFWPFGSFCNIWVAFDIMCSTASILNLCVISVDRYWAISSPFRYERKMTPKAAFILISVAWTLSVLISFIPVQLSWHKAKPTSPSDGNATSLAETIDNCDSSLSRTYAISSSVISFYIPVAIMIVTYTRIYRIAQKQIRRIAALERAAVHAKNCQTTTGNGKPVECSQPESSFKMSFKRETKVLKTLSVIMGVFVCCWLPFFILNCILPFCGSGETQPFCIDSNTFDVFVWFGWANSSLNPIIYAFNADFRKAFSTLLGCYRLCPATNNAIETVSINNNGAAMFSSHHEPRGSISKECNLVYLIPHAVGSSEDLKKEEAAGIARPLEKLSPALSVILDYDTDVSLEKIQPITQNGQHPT

D(3) dopamine receptor = D(3) dopamine receptor (Homo sapiens, UniProt P35462); assay: Inhibition of D3 receptor (unknown origin); details: concentration not given here
Chain of D(3) dopamine receptor (P35462 whole entry): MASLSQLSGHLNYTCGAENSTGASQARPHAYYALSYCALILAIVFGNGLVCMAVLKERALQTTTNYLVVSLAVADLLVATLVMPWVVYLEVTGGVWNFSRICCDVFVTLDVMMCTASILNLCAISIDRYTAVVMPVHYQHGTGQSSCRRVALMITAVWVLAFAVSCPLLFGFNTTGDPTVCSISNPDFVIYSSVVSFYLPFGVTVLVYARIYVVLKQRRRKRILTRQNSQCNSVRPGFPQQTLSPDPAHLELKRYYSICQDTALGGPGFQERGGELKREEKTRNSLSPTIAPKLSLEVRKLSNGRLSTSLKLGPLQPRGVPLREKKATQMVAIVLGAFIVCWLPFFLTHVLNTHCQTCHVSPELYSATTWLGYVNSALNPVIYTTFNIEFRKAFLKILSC

Chain of 5-hydroxytryptamine receptor 1E (P28566 whole entry): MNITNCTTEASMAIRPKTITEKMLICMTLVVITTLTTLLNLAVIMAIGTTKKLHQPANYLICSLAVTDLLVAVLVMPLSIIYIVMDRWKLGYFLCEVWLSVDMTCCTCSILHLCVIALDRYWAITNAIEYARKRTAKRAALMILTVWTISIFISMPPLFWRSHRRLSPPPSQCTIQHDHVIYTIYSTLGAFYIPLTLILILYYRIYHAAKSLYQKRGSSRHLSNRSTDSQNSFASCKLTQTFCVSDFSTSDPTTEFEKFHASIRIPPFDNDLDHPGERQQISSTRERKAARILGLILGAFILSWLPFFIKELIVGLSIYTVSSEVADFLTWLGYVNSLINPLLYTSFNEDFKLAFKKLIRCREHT

| Structure (SMILES) | Ki [1] [nM] | inhibition [2] [%] | Emax [3] [%] | inhibition [4] [%] | inhibition [5] [%] | inhibition [6] [%] | EC50 ([7]; read-out: EC50) [nM] | Ki [8] [nM] | inhibition [9] [%] | inhibition [10] [%] | inhibition (Homo sapiens) [%] | inhibition [11] [%] | inhibition (D(3) dopamine receptor) [%] | EC50 ([7]; read-out: pEC50 (converted)) [nM] |
| --- | --- | --- | --- | --- | --- | --- | --- | --- | --- | --- | --- | --- | --- | --- |
| COc1ccc(C2NCCc3c2[nH]c2ccc(F)cc32)c(O)c1 (stereo unspecified) | 1410 | < 50 | 102 | < 50 | < 50 | < 50 | 1.3 | 25.4 | < 50 | < 50 | < 50 | < 50 | < 50 | – |
| COc1cc(OC)c(C2NCCc3c2[nH]c2ccc(Cl)cc32)cc1OC (stereo unspecified) | 666 | < 50 | 96.7 | < 50 | < 50 | < 50 | 0.58 | 2.5 | < 50 | < 50 | < 50 | < 50 | < 50 | – |
| COc1ccc(C2NCCc3c2[nH]c2ccc(Cl)cc32)c(O)c1 (stereo unspecified) | 1750 | < 50 | 99.4 | < 50 | < 50 | < 50 | 3.1 | 7.98 | < 50 | < 50 | < 50 | < 50 | – | – |
| COc1cc(OC)c(C2NCCc3c2[nH]c2ccc(F)cc32)cc1OC (stereo unspecified) | – | < 50 | 106 | < 50 | < 50 | < 50 | 10 | 249 | < 50 | < 50 | < 50 | < 50 | < 50 | 11 |
